Publication PMC9599461, “Stereoselectivity in the Membrane Transport of Phenylethylamine Derivatives by Human Monoamine Transporters and Organic Cation Transporters 1, 2, and 3” (Biomolecules, 2022)

Experiments:
[1] = tested on: human neuroblastoma cells; set-up: method as in PMID 9085193; settings: cited from earlier work
OCT2 A270S variant = assay: in vitro; settings: human, Stereoselectivity OCT2_A270S, 100 μM racemic substance, two minutes; uptake ratio of enantiomers, given as for (S)
Procedure: (§1) All transport experiments were carried out in HEK293 cells stably overexpressing human MATs or OCTs. […] All cells were regularly cultivated in DMEM supplemented with 10% (v/v) FCS, penicillin (100 U/mL) and streptomycin (100 μg/mL)and kept in culture for no longer than 30 passages.
(§2) For the uptake experiments, 300,000 cells were plated in poly-D-lysine precoated 24-well plates 48 h ahead of the transport experiment. On the day of experiment, cells were initially washed once with 37 °C pre-warmed HBSS+ (Hanks buffered salt solution supplemented with 10 mM HEPES) and subsequently incubated with the substrates dissolved in pre-warmed HBSS+ for exactly two minutes. Incubation was stopped by adding ice-cold HBSS+ followed by two washing steps. After this, cells were lysed with 80% acetonitrile containing 10 ng/mL milnacipran as internal standard for high-performance liquid chromatography coupled to tandem mass spectrometry (HPLC-MS/MS) analysis. For every experiment, two additional wells per cell line were lysed using RIPA buffer for protein quantification. Total protein was quantified using the bicinchoninic acid assay [42]. This was later used for normalization of the uptake data.
(§3) Intracellularly accumulated test substances were quantified by HPLC-MS/MS analysis using a Shimadzu Nexera HPLC system with a SIL-30AC autosampler, a CTO-20AC column oven, a LC-30AD pump, and a CBM-20A controller (Shimadzu, Kyoto, Japan). Stereoselective chromatography was carried out on a [sequence] CBH HPLC column (100 × 3 mm inner dimension with 5 μM particle size; Sigma-Aldrich, Darmstadt, Germany) with a corresponding 10 × 3 mm guard column. Reversed phased chromatography was carried out using an ammonium acetate (NH4Ac) buffered aqueous mobile phase with isopropyl alcohol (IPA) as organic solvent. […] The order of elution of the enantiomers was obtained from available reference literature [43] or by applying enantiopure reference compounds to the chiral HPLC. […] However, in every other case where the order of elution was available, the (R)-enantiomer eluted first. Given the structural similarity of the investigated substances and the fact that separation was performed on the same column with almost identical mobile phases, we assume that this order of elution for our compound set is always the (R)- before the (S)-enantiomer.
(§4) Detection was performed with an API 4000 tandem mass spectrometer (AB SCIEX, Darmstadt, Germany) operating in multiple-reaction-monitoring mode. Quantification was performed using the Analyst 1.6.2 software (AB SCIEX, Darmstadt, Germany) and quantified by comparison to standard curves with known concentrations.
(§5) All uptake data were normalized to protein content to account for variation in the number of seeded sells. Transporter-mediated net uptake was calculated by subtracting uptake into empty vector-transfected control cells from uptake into transporter-transfected cells. Kinetic parameters were then determined after non-linear regression following the Michaelis–Menten equation (v = vmax × [S]/(Km + [S])) using GraphPad Prism (Version 5.01 for Windows, GraphPad Software, La Jolla, CA, USA). Vmax refers to the maximum transport velocity and Km is defined as the substance concentration required to reach half of vmax. The intrinsic clearance Clint was calculated as the quotient of vmax over Km.
(§6) HEK293 cells stably overexpressing wild-type or mutant OCT2 were incubated with 100 μM racemic substance for two minutes.

OCT2 (wild-type) = target: T1, OCT2 (wild-type) (Homo sapiens, UniProt O15244); assay: Stereoselective uptake into OCT2 (wild-type)-overexpressing HEK293 cells; settings: human, Stereoselectivity OCT2_WT, 100 μM racemic substance, two minutes; uptake ratio of enantiomers, given as for (S)
T1 sequence (O15244 1-555 S270A): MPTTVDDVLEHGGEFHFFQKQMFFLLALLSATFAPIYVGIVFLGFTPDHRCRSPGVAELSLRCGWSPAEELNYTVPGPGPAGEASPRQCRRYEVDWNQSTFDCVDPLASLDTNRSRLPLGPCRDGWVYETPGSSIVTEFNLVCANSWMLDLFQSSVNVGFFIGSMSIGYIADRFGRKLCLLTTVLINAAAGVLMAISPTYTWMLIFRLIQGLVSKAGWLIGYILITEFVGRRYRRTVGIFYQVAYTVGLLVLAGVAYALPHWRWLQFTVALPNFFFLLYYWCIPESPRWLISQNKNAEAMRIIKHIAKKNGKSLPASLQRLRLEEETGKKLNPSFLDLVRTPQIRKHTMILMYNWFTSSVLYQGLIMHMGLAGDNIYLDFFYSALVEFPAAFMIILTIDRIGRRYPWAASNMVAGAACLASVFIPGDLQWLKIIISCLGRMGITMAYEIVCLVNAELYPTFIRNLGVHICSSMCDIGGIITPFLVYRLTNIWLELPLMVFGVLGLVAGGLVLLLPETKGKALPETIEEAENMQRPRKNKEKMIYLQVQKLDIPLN
Procedure: as §1, §2, §3, §4, §5, §6

NET = NET (Homo sapiens, UniProt P23975); assay: Stereoselective uptake into NET-overexpressing HEK293 cells;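 further: intracellular enantiomers quantified in cell lysates by chiral HPLC-MS/MS after a 2 min substrate incubation, with uptake normalized to total cellular protein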
Chain of NET (P23975 whole entry): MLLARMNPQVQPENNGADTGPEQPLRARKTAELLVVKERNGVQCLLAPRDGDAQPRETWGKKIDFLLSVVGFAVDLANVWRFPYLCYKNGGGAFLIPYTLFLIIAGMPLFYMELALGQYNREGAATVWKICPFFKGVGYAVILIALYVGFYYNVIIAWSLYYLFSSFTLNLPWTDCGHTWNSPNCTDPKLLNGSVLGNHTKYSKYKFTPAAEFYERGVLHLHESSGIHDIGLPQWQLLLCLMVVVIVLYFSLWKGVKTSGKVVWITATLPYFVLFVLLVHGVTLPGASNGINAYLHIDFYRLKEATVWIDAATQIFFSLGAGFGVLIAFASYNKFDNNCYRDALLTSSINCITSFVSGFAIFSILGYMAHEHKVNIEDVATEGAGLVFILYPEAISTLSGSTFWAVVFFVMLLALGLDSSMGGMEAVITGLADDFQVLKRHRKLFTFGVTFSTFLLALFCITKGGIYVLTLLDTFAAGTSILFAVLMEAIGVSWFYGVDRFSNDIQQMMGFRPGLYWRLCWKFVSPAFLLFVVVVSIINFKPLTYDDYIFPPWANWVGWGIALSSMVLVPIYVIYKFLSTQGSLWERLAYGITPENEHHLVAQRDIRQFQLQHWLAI
Procedure: as §1, §2
(§7) Intracellularly accumulated test substances were quantified by HPLC-MS/MS analysis using a Shimadzu Nexera HPLC system with a SIL-30AC autosampler, a CTO-20AC column oven, a LC-30AD pump, and a CBM-20A controller (Shimadzu, Kyoto, Japan). Stereoselective chromatography was carried out on a [sequence] CBH HPLC column (100 × 3 mm inner dimension with 5 μM particle size; Sigma-Aldrich, Darmstadt, Germany) with a corresponding 10 × 3 mm guard column. Reversed phased chromatography was carried out using an ammonium acetate (NH4Ac) buffered aqueous mobile phase with isopropyl alcohol (IPA) as organic solvent. […] The order of elution of the enantiomers was obtained from available reference literature [43] or by applying enantiopure reference compounds to the chiral HPLC. […] Given the structural similarity of the investigated substances and the fact that separation was performed on the same column with almost identical mobile phases, we assume that this order of elution for our compound set is always the (R)- before the (S)-enantiomer.
as §4, §5

DAT = DAT (Homo sapiens, UniProt Q01959); assay: Stereoselective uptake into DAT-overexpressing HEK293 cells;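 further: intracellular accumulation measured by chiral HPLC-MS/MS in stably transfected HEK293 cells, normalized to total protein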
Chain of DAT (Q01959 whole entry): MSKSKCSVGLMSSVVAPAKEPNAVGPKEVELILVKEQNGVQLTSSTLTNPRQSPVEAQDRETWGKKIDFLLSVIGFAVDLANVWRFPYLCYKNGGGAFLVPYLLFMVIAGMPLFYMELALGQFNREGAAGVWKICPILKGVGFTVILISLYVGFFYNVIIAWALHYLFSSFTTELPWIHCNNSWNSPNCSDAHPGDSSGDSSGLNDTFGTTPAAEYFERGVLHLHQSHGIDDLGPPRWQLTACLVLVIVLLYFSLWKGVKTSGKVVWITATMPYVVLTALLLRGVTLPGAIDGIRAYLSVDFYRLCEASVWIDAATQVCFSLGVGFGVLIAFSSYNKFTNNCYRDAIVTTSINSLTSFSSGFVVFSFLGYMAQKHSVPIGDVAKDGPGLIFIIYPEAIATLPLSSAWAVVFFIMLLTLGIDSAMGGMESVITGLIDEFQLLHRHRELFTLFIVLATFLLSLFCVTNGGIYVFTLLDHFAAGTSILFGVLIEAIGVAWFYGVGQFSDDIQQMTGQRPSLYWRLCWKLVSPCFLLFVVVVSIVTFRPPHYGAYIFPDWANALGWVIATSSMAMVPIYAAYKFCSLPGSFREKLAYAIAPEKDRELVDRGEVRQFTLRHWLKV
Procedure: as §1, §2, §7, §4, §5

SERT = SERT (Homo sapiens, UniProt P31645); assay: Stereoselective uptake into SERT-overexpressing HEK293 cells;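 further: uptake into HEK293 cells stably expressing human SERT over 2 min, enantiomers measured in cell lysate by chiral HPLC-MS/MS, normalized to total protein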
Chain of SERT (P31645 whole entry): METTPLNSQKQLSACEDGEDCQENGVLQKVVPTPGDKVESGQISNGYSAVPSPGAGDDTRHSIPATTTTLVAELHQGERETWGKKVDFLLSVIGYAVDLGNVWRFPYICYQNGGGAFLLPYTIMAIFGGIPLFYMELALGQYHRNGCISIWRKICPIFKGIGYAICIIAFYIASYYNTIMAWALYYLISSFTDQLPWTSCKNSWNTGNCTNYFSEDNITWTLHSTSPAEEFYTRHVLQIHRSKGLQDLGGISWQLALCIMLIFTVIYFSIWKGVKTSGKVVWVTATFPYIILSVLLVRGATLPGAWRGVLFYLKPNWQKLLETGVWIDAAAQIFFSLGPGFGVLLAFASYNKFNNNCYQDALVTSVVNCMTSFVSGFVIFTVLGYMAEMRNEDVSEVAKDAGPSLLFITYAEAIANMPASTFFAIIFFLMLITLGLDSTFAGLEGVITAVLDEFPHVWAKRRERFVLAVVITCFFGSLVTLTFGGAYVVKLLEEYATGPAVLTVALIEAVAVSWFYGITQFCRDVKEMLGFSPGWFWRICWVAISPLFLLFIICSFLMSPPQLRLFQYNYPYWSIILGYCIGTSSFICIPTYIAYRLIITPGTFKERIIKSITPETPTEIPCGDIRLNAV

OCT1 = target: T2, OCT1 (Homo sapiens, UniProt O15245); assay: Stereoselective uptake into OCT1-overexpressing HEK293 cells; settings: OCT1; for selectivity ratio at 2 min: human, ratio between enantiomers;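 on all read-outs here: enantiomers quantified inside cells by chiral HPLC-MS/MS, uptake normalized to total protein from bicinchoninic acid assay, substrates applied in HBSS+ buffer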
T2 sequence (O15245 1-554): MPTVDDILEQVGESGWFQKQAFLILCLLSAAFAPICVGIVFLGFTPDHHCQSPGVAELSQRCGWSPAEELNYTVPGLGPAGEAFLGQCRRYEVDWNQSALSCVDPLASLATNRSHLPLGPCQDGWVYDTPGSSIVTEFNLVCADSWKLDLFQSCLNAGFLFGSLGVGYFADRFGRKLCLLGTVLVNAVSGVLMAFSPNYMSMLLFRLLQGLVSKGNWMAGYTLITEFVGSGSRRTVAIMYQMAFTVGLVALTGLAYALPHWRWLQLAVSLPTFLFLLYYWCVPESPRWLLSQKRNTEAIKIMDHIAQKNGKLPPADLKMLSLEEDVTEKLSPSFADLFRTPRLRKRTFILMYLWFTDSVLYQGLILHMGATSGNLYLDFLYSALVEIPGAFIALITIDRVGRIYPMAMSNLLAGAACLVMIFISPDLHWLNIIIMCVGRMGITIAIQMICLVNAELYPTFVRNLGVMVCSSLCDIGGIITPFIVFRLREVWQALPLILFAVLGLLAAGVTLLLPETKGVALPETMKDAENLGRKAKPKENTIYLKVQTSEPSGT

OCT3 = target: T3, OCT3 (Homo sapiens, UniProt O75751); assay: Stereoselective uptake into OCT3-overexpressing HEK293 cells;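 further: intracellular accumulation in HEK293 cells measured by chiral HPLC-MS/MS after a 2 min substrate exposure at 37 °C, uptake normalized to total protein (bicinchoninic acid assay)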
T3 sequence (O75751 1-556): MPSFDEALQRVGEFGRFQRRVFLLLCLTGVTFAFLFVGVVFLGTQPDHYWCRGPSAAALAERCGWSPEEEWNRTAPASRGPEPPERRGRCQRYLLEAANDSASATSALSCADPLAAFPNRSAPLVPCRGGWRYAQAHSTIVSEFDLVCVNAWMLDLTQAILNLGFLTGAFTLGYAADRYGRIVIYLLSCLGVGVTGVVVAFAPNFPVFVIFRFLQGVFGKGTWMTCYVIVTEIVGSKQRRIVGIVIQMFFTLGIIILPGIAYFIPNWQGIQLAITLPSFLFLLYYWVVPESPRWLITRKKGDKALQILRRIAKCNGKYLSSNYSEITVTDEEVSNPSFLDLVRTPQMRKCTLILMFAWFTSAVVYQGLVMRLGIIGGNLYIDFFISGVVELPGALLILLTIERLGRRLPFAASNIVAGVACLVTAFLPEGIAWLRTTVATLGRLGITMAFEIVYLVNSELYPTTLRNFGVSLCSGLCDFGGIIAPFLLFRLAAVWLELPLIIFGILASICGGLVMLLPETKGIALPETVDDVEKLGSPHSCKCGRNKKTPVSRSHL
Procedure: as §1, §2, §7, §4, §5

OCT2 = target: T4, OCT2 (Homo sapiens, UniProt O15244); assay: Stereoselective uptake into OCT2 (wild-type)-overexpressing HEK293 cells; settings: OCT2; for selectivity ratio at 2 min: human, ratio between enantiomers
T4 sequence (O15244 1-555 S270A): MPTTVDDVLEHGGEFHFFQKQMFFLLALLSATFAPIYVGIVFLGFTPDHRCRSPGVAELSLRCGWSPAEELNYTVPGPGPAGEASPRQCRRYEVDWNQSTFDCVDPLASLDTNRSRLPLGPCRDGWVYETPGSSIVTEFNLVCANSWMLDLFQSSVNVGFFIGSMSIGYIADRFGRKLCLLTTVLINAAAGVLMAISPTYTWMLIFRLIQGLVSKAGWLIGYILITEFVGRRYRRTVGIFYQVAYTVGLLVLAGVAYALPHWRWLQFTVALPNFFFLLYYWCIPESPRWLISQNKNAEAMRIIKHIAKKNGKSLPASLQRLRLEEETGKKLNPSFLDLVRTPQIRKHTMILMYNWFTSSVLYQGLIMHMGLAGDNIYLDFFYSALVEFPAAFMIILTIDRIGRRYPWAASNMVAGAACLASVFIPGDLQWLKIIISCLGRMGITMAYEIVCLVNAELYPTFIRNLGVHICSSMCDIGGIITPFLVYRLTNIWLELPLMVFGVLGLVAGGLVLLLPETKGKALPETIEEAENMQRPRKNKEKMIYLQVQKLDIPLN
Procedure: as §1, §2, §3, §4, §5, §6

[2] = tested on: OCT2 wild-type versus A270S variant; assay: Stereoselective uptake into OCT2 A270S variant-overexpressing HEK293 cells; settings: human;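 further: uptake into HEK293 cells stably overexpressing human OCT2 variants, intracellular enantiomers quantified by chiral HPLC-MS/MS and normalized to total protein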
Procedure: as §1, §2, §3, §4, §5, §6

CC1NCCc2cc(O)c(O)cc21 (stereo not drawn) [Salsolinol]
Cytotoxicity of (S)-enantiomer versus (R)-enantiomer [1]: almost two-fold higher
selectivity ratio at 2 min, 100 μM (OCT2 A270S variant): 1.1
selectivity ratio at 2 min, 100 μM (OCT2 (wild-type)): 1.06

NC[C@@H](O)c1ccc(O)cc1 [(S)-Octopamine]
Clint ± SEM (NET; NET, quotient of vmax over Km): 198 mL × g Protein^−1 × min^−1
Stereoselectivity Vmax (NET; NET, ratio between enantiomers, given as for (R) or for 1): 1.30 fold
Stereoselectivity Km (NET; NET, ratio between enantiomers, given as for (R) or for 1 (first-eluting)): 1.55 fold
selectivity ratio at 2 min (NET; human, HEK293 cells stably overexpressing human NET): 1.19
Clint ± SEM (DAT; DAT, quotient of vmax over Km): 100 mL × g Protein^−1 × min^−1
Stereoselectivity Vmax (DAT; DAT, ratio between enantiomers, given as for (R) or for 1): 1.05 fold
Stereoselectivity Km (DAT; DAT, ratio between enantiomers, given as for (R) or for 1 (first-eluting)): 1.05 fold
selectivity ratio at 2 min (DAT; human, HEK293 cells stably overexpressing human DAT): 1
Clint ± SEM (SERT; SERT, quotient of vmax over Km): 2.42 mL × g Protein^−1 × min^−1
Stereoselectivity Vmax (SERT; SERT, ratio between enantiomers, given as for (R) or for 1): 2.38 fold
Stereoselectivity Km (SERT; SERT, ratio between enantiomers, given as for (R) or for 1 (first-eluting)): 1.39 fold
selectivity ratio at 2 min (SERT; human, HEK293 cells stably overexpressing human SERT): 1.71
Clint ± SEM (OCT1; quotient of vmax over Km): 4.32 mL × g Protein^−1 × min^−1
selectivity ratio at 2 min (OCT1; HEK293 cells stably overexpressing human OCT1, Stereoselectivity ClInt, given as for (R) or for 1 (also 1.00-fold for 1/2)): 1.05
selectivity ratio at 2 min (OCT1; HEK293 cells stably overexpressing human OCT1, Stereoselectivity Km, given as for (R) or for 1 (first-eluting)): 1.04
selectivity ratio at 2 min (OCT1; HEK293 cells stably overexpressing human OCT1, Stereoselectivity Vmax, given as for (R) or for 1): 1.09
Clint ± SEM (OCT3; OCT3, quotient of vmax over Km): 53.4 mL × g Protein^−1 × min^−1
Stereoselectivity Vmax (OCT3; OCT3, ratio between enantiomers, given as for (S) or for 2): 1.10 fold
selectivity ratio at 2 min (OCT3; human, HEK293 cells stably overexpressing human OCT3): 1.38
Clint ± SEM (OCT2; quotient of vmax over Km): 30.2 mL × g Protein^−1 × min^−1
selectivity ratio at 2 min (OCT2; HEK293 cells stably overexpressing human wild-type OCT2, Stereoselectivity ClInt, given as for (R) or for 1): 1.31
selectivity ratio at 2 min (OCT2; HEK293 cells stably overexpressing human wild-type OCT2, Stereoselectivity Km, given as for (R) or for 1 (first-eluting)): 1.63
selectivity ratio at 2 min (OCT2; HEK293 cells stably overexpressing human wild-type OCT2, Stereoselectivity Vmax, given as for (R) or for 1): 2.14
selectivity ratio at 2 min, 100 μM [2]: 1.17
